Measured values published in paper PMC10303271, “Synthesis and Receptor Binding Studies of α5 GABAAR Selective Novel Imidazodiazepines Targeted for Psychiatric and Cognitive Disorders” (Molecules, 2023).
Read-outs that look alike come from different tables or passages of the source.

Legend:
Beta3 = biological target: T1, Beta3 (Homo sapiens, UniProt P13945); assay: PDSP primary binding Beta3; details: 1.5 h; primary binding, 10,000 nM; last figure of the line = mean of the 4 before it; read-out: Beta3, PDSP raw data, mean
T1 construct: purchased NIMH Psychoactive Drug Screening Program (PDSP)
Method: (§1) To determine if any off-target receptor-binding effects are present, all the novel ligands were sent to the National Institute of Mental Health (NIMH), Psychoactive Drug Screening Program (PDSP). The ligands were screened over a panel of 47 receptors, ion channels, and transporters to determine any other possible interactions with […]. The hERG-binding was also determined. […] No binding of the test compounds to calcium channels was observed. […] It is necessary to screen the compounds for hERG-binding during the early process of drug discovery. The unintentional binding of many drugs to hERG can cause blockade of hERG K+ channels in the heart, which can cause many side effects including cardiac arrhythmias and sudden death. […] All of the α5 imidazodiazepines were tested for hERG-binding.
(§2) The NIMH PDSP assay protocol book [https://kidbdev.med.unc.edu/databases/PDSP%20Protocols%20II%202013-03-28.pdf accessed on 23 April 2023]. describes the protocols for primary and secondary radio-ligand binding assays. These assays were carried out in a final volume of 125 µL per well in the appropriate binding buffer.
(§3) The binding of a ligand to a receptor, ion channel, or transporter was determined in the […] of 10 µM of the appropriate reference compound. […] Plates were incubated in the dark for 90 min at rt, and the reactions were stopped by vacuum filtration onto 0.3% polyethyleneimine (PEI) soaked 96-well filter mats using a 96-well Filtermateharvester. This was followed by three washes with cold PBS buffer. Radioactivity was then counted on a Microbeta counter. Nonlinear regression was used to analyze the data with N = 6 replicates.

5-HT1B = biological target: T2, 5-HT1B (Homo sapiens, UniProt P28222); assay: PDSP primary binding 5-HT1B; details: 1.5 h; primary binding, 10,000 nM; last figure of the line = mean of the 4 before it; read-out: 5-HT1B, PDSP raw data, mean
T2 construct: purchased NIMH Psychoactive Drug Screening Program (PDSP)
Method: as §1, §2, §3

5-HT3 = biological target: T3, 5-HT3 (Homo sapiens, UniProt P46098); assay: PDSP primary binding 5-HT3; details: 1.5 h; primary binding, 10,000 nM; last figure of the line = mean of the 4 before it; read-out: 5-HT3, PDSP raw data, mean
T3 construct: purchased NIMH Psychoactive Drug Screening Program (PDSP)
T3 sequence (P46098 24-478): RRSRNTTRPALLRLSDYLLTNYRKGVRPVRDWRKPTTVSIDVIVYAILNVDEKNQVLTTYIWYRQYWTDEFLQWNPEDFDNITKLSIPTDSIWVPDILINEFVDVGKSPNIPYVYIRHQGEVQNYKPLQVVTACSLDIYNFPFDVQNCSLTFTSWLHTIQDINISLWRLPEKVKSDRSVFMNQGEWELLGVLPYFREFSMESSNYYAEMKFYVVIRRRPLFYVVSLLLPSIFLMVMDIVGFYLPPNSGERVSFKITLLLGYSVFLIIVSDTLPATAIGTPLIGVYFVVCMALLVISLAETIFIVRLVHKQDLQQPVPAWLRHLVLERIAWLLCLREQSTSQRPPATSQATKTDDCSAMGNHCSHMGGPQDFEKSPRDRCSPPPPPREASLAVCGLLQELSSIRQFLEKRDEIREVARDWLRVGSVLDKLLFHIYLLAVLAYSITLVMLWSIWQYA
Method: as §1, §2, §3

[1] = biological target: kappa opioid receptors (KOR) (Homo sapiens, UniProt P41145); assay: PDSP radioligand binding at KOR; details: for inhibition at 10 µM: 1.5 h
From the text: (§4) Opioid receptors are a family of inhibitory G-coupled protein receptors where opioids act as the ligand. The kappa opioid receptors (KOR), µ and δ opioid receptors (MOR and DOR), and nociception opioid receptor (NOP) fall under the family of opioids receptors. It has been reported that oxadiazole imidazodiazepines can mediate analgesic and anti-inflammatory properties mediated also by the κ opioid receptor (KOR). The binding at KOR is usually silent. The affinities of the test compounds for KOR, DOR, and MOR were determined using radioligand binding assays at a screening concentration of 10,000 nM in collaboration with the National Institute of Mental Health’s Psychoactive Drug Screening Program (PDSP), as mentioned before. Concentration-dependent experiments were conducted to determine Ki values for the compounds that exceeded more than 50% radioligand displacement in primary binding assays.
as §2, §3

5-HT2B = biological target: T4, 5-HT2B (Homo sapiens, UniProt P41595); assay: PDSP primary binding 5-HT2B; details: 1.5 h; primary binding, 10,000 nM; last figure of the line = mean of the 4 before it; read-out: 5-HT2B, PDSP raw data, mean
T4 construct: purchased NIMH Psychoactive Drug Screening Program (PDSP)
Method: as §1, §2, §3

MOR = biological target: T5, MOR (Homo sapiens, UniProt P35372); assay: PDSP radioligand binding at MOR; details: 1.5 h
T5 construct: purchased NIMH Psychoactive Drug Screening Program (PDSP)
From the text: as §4, §2, §3

hERG channels = biological target: T6, hERG channels (Homo sapiens, UniProt Q12809); assay: PDSP radioligand binding at hERG; details: primary binding, 10,000 nM; last figure of the line = mean of the 4 before it
T6 construct: purchased NIMH Psychoactive Drug Screening Program (PDSP)
Method: as §1, §2, §3

Alpha1A = biological target: T7, Alpha1A (Homo sapiens, UniProt P35348); assay: PDSP primary binding Alpha1A; details: 1.5 h; primary binding, 10,000 nM; last figure of the line = mean of the 4 before it; read-out: Alpha1A, PDSP raw data, mean
T7 construct: purchased NIMH Psychoactive Drug Screening Program (PDSP)
T7 sequence (P35348 1-466): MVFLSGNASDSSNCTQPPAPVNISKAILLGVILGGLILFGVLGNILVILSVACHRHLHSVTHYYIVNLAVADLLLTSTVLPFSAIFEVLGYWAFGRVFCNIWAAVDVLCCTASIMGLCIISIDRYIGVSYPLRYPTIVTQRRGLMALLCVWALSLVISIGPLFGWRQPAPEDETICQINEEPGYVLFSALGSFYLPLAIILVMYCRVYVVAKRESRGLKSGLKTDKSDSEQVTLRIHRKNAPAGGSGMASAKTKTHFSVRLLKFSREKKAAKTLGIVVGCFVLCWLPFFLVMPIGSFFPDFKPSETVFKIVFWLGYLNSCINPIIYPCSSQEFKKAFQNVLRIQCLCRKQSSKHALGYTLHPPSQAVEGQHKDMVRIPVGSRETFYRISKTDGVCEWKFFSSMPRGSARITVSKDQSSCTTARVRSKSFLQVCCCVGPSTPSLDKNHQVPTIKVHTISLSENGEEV
Method: as §1, §2, §3

D1 = biological target: T8, D1 (Homo sapiens, UniProt P21728); assay: PDSP primary binding D1; details: 1.5 h; primary binding, 10,000 nM; last figure of the line = mean of the 4 before it; read-out: D1, PDSP raw data, mean
T8 construct: purchased NIMH Psychoactive Drug Screening Program (PDSP)
Method: as §1, §2, §3

H4 = biological target: T9, H4 (Homo sapiens, UniProt Q9H3N8); assay: PDSP primary binding H4; details: primary binding, 10,000 nM; last figure of the line = mean of the 4 before it; read-out: H4, PDSP raw data, mean
T9 construct: purchased NIMH Psychoactive Drug Screening Program (PDSP)
Method: as §1, §2, §3

[2] = at 10,000 nM, N = 5, [3H]-U69593 0.83 nM, read-out: Primary Binding %KOR
[3] = primary binding, 10,000 nM, last figure of the line = mean of the 4 before it, read-out: KOR, PDSP raw data, mean
[4] = at 10,000 nM, N = 5, [3H]-DAMGO 1.20 nM, read-out: Primary Binding %MOR
[5] = primary binding, 10,000 nM, last figure of the line = mean of the 4 before it, read-out: MOR, PDSP raw data, mean

T6 sequence (Q12809 whole entry): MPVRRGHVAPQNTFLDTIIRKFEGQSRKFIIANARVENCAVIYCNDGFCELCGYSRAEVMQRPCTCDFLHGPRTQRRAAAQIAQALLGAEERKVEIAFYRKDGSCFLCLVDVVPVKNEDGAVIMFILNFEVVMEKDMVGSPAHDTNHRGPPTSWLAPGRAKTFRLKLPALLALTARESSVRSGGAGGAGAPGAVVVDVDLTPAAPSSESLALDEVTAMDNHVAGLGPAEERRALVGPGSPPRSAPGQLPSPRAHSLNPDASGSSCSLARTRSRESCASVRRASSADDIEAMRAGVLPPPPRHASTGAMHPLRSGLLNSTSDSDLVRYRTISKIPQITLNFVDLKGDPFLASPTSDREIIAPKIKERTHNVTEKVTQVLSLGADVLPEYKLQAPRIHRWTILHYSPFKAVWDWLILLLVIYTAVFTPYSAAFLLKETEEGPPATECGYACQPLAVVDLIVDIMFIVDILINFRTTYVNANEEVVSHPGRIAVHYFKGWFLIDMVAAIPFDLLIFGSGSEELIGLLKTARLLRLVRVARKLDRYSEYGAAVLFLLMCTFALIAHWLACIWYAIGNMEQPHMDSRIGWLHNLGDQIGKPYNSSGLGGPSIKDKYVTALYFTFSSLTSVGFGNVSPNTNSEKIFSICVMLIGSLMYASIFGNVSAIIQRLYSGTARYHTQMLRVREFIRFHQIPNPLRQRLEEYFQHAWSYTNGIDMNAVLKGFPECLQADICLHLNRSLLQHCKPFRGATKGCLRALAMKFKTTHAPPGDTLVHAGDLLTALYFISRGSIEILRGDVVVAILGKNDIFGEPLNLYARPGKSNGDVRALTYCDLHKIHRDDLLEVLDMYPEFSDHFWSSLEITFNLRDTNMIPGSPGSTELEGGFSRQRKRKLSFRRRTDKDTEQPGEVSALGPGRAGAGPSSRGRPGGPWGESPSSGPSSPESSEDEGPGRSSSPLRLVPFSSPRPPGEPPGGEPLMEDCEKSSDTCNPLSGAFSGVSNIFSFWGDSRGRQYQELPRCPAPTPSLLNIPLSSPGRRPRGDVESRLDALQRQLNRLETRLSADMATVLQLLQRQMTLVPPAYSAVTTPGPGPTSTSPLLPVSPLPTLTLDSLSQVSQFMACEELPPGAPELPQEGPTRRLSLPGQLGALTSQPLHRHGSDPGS
T4 sequence (P41595 whole entry): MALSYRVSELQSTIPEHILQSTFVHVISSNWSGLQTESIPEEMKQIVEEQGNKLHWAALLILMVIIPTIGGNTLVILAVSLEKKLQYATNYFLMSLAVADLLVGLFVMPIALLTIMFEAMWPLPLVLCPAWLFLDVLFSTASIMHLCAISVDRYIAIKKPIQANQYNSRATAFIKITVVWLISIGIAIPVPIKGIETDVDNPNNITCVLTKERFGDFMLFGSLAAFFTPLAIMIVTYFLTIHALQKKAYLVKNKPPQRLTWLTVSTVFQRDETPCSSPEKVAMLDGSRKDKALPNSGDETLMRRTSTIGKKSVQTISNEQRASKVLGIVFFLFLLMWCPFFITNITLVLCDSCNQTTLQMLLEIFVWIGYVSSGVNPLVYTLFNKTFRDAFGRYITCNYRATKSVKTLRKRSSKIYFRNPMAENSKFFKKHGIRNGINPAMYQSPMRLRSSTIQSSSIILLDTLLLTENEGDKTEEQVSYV
T9 sequence (Q9H3N8 whole entry): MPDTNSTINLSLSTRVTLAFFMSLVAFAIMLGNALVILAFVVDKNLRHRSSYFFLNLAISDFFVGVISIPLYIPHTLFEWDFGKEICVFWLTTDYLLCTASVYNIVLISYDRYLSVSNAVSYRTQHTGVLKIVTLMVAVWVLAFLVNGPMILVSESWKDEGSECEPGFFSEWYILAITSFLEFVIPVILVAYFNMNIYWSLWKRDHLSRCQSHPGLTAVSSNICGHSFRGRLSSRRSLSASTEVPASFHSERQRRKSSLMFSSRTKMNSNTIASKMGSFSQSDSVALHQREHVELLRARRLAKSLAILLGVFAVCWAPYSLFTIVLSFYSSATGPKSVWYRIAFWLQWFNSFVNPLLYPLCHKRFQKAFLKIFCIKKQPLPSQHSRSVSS
T5 sequence (P35372 whole entry): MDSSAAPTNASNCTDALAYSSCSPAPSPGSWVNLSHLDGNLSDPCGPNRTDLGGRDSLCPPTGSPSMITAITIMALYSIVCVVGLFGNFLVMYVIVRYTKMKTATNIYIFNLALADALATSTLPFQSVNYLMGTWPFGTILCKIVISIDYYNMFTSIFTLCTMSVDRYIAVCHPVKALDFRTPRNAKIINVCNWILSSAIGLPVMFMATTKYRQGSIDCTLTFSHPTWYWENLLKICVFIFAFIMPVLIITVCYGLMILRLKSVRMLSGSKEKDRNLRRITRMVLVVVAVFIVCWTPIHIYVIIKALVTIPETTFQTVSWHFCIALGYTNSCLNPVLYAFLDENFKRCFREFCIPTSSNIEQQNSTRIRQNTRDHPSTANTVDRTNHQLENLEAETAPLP
Sequence of kappa opioid receptors (KOR) (P41145 whole entry): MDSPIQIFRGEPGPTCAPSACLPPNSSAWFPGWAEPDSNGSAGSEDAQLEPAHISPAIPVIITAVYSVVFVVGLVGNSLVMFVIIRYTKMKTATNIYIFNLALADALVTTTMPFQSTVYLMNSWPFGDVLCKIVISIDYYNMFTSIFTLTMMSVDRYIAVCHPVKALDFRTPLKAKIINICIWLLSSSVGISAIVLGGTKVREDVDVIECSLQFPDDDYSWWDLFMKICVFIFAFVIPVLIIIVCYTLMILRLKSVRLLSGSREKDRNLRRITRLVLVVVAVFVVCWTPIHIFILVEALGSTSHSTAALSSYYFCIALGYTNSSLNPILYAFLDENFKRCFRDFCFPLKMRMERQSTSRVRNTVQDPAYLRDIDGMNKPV
T8 sequence (P21728 whole entry): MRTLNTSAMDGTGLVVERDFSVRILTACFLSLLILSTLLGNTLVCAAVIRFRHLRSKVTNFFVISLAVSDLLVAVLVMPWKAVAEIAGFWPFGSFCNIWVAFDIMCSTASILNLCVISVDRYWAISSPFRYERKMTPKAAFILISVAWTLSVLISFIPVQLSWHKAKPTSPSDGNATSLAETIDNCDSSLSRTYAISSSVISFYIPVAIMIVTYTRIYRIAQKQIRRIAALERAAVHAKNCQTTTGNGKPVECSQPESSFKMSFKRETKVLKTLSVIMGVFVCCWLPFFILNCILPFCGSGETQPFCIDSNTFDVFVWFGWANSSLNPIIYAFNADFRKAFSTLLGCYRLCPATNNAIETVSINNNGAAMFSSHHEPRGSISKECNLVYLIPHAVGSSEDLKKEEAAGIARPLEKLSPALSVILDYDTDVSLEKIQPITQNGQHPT
T1 sequence (P13945 whole entry): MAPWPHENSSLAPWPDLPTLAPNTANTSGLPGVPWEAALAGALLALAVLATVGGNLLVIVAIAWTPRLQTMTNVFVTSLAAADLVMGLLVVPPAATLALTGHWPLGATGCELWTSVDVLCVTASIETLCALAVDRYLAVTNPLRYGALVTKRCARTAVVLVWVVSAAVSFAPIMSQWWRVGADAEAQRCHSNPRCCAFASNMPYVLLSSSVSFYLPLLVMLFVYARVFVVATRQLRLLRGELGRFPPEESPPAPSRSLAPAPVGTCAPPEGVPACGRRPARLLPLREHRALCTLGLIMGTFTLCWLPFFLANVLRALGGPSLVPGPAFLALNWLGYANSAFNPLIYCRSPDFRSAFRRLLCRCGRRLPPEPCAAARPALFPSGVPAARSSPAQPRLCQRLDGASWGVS
T2 sequence (P28222 whole entry): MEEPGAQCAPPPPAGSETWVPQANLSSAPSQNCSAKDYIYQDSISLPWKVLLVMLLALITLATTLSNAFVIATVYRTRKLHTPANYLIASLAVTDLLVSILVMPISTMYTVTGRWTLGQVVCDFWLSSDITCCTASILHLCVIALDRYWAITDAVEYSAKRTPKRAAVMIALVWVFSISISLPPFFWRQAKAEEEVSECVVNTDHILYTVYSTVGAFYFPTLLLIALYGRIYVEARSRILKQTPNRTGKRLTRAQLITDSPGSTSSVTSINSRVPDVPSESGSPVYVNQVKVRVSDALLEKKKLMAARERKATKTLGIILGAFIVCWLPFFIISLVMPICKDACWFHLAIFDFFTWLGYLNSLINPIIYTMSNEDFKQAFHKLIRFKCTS

| SMILES | inhibition at 10 µM (Beta3) [%] | inhibition at 10 µM (5-HT1B) [%] | inhibition at 10 µM (5-HT3) [%] | inhibition at 10 µM [1, 2] [%] | inhibition at 10 µM [1, 3] [%] | inhibition at 10 µM (5-HT2B) [%] | inhibition at 10 µM (MOR; [4]) [%] | inhibition at 10 µM (MOR; [5]) [%] | HERG, PDSP raw data, mean (hERG channels) [%] | inhibition at 10 µM (Alpha1A) [%] | inhibition at 10 µM (D1) [%] | inhibition at 10 µM (H4) [%] | Ki ([1]; secondary screening, N = 2, read-out: KOR (Ki)) [nM] | Ki [1] [nM] |
| --- | --- | --- | --- | --- | --- | --- | --- | --- | --- | --- | --- | --- | --- | --- |
| C#Cc1ccc2c(c1)C(c1ccccn1)=N[C@@H](C)c1c(C(=O)NC)ncn1-2 [Compound 23, (S)-8-Ethynyl-N,4-dimethyl-6-(pyridin-2′-yl)-4H-benzo[f]imidazo[1,5-a][1,4]diazepine-3-carboxamide] | 0.63 | -3.82 | -7.15 | 26.9 ± 6.21 | 26.9 | -3.33 | 5.24 ± 10.7 | 5.24 | -4.24 | -5.28 | -37.2 | -16.8 |  |  |
| C[C@H]1N=C(c2ccccc2F)c2cc(-c3ccccc3)ccc2-n2cnc(C(=O)N(C)C)c21 [Compound 5, (R)-6-(2′-Fluorophenyl)-N,N,4-trimethyl-8-phenyl-4H-benzo[f]imidazo[1,5-a][1,4]diazepine-3-carboxamide] | -19.4 | 11.8 | -0.89 | 53.6 ± 7.24 | 53.6 | 26.5 | -11.2 ± 5.72 | -11.2 | -0.48 | -4.47 | -35.4 | 0.9 | 2140 ± 311 |  |
| CCc1noc(-c2ncn3c2CN=C(c2ccccc2F)c2cc(C4CC4)ccc2-3)n1 [Compound 44, 5-(8-Cyclopropyl-6-(2′-fluorophenyl)-4H-benzo[f]imidazo[1,5-a][1,4]diazepin-3-yl)-3-ethyl-1,2,4-oxadiazole] | -4.01 | 62.1 | 12.8 | 96.3 ± 2.29 | 96.3 | 18.5 | 26.4 ± 6.01 | 26.4 | 33.24 | 21.4 | 49.6 | 20.6 |  | 207 ± 33.1 |
| CCc1noc(-c2ncn3c2[C@@H](C)N=C(c2ccccc2F)c2cc(C4CC4)ccc2-3)n1 [Compound 46, (R)-5-(8-Cyclopropyl-6-(2′-fluorophenyl)-4-methyl-4H-benzo[f]imidazo[1,5-a][1,4]diazepin-3-yl)-3-ethyl-1,2,4-oxadiazole] | 31.1 | 15.1 | 29.8 |  | 91.3 | 25.1 |  | 25.1 | 4.34 | 31.8 | 74.6 | 21.7 |  |  |
| C#Cc1ccc2c(c1)C(c1ccccn1)=N[C@@H](C)c1c(C(=O)N(C)C)ncn1-2 [Compound 31, (S)-8-Ethynyl-N,N,4-trimethyl-6-(pyridin-2′-yl)-4H-benzo[f]imidazo[1,5-a][1,4]diazepine-3-carboxamide] | -6.68 | -0.27 | -3.58 | -3.79 ± 4.99 | -3.79 | -3.38 | 4.55 ± 12.5 | 4.55 | 0.95 | -10.5 | -41.5 | -12.6 |  |  |
| CC(C)c1noc(-c2ncn3c2[C@@H](C)N=C(c2ccccc2F)c2cc(Cl)ccc2-3)n1 [Compound 37, (R)-5-(8-Chloro-6-(2′-fluorophenyl)-4-methyl-4H-benzo[f]imidazo[1,5-a][1,4]diazepin-3-yl)-3-isopropyl-1,2,4-oxadiazole] | 46 | 10.4 | 13.5 | 99.2 ± 1.75 | 99.2 | 8.56 | 48.6 ± 4.17 | 48.6 | 20.73 | -8.38 | 27.4 | 6.39 |  | 46.3 ± 4.93 |
| CCc1noc(-c2ncn3c2[C@@H](C)N=C(c2ccccc2F)c2cc(-c4ccccc4)ccc2-3)n1 [Compound 35, (R)-3-Ethyl-5-(6-(2′-fluorophenyl)-4-methyl-8-phenyl-4H-benzo[f]imidazo[1,5-a][1,4]diazepin-3-yl)-1,2,4-oxadiazole] | 27.9 | 11.6 | -9.33 | 38 ± 1.73 | 38 | 13.8 | 14.8 ± 6.32 | 14.8 | 37.34 | 20.8 | 29.2 | 54.7 |  |  |
| C#Cc1ccc2c(c1)C(c1ccccc1F)=N[C@H](C)c1c(C(=S)N(C)C)ncn1-2 [Compound 33, (R)-8-Ethynyl-6-(2′-fluorophenyl)-N,N,4-trimethyl-4H-benzo[f]imidazo[1,5-a][1,4]diazepine-3-carbothioamide] | -19.4 | 11.8 | -0.89 | 53.6 ± 7.24 | 53.6 | 26.5 | -2.4 ± 5.72 | -11.2 | -0.48 | -4.47 | -35.4 | 0.9 |  | 400 ± 82 |
